Experimental findings from patent publication US20230416293A1, “SYNTHESIS OF [18F]-LABELED THYMIDINE ANALOGUES” (UNIVERSITY OF SOUTHERN CALIFORNIA, priority 2020, published 2023) are described below.

The nature of series [1]: 1-octanol/PBS partition coefficient (Log P). The series is classed as physicochemical. The following applies: for Partition coefficients of 1-octanol/PBS: room temperature, PBS pH 7.4, quintuplicate.
Another series relates to MDA-MB-231 tumor. The series is described as follows: microPET imaging of subcutaneous MDA-MB-231 tumor-bearing nude mice. The series is classed as in vivo. The following applies: MDA-MB-231 tumor model; for tumor uptake: intravenous, n=3.
Another series relates to U-87 MG tumor. The series is described as follows: microPET imaging of subcutaneous U-87 MG tumor-bearing nude mice. The following applies: U-87 MG tumor model; for tumor uptake: intravenous, n=3. Type of series: in vivo.
Where [2] appears, read: 1-octanol/PBS pH 7.4, room temperature, quintuplicate.

Protocol for MDA-MB-231 tumor: (§1) After the intravenous injection of [^18F]FMAU at 1 h and 2 h, the mice (n=3/group) were scanned through a microPET imaging system. […] For microPET scans, radioactivity accumulations in tumors and major tissues/organs were quantified by calculating the ROIs that comprised the entire organ on the coronal images.
(§2) Tumor cells were cultured in Dulbecco's Modified Eagle Medium (DMEM) supplemented with 10% fetal bovine serum at 37° C. in a humidified incubator containing 5% CO2.
(§3) Both MDA-MB-231 and U-87 MG tumor xenograft models (n=3/group) were generated by subcutaneous injection of 5×10^6 tumor cells into the front right flank of female athymic nude mice (4-6 weeks old) purchased from Envigo Inc., Indianapolis, IN. The tumors were permitted to grow 2-4 weeks until approximate 0.6-0.8 cm^3 in volume.
(§4) MicroPET scans were carried out using a rodent scanner (Siemens Inveon microPET scanner, Siemens Medical Solutions). About 7.4 MBq (200 μCi) of [^18F]FMAU was injected through the tail vein under isoflurane anesthesia condition. Five-minute static scans were obtained at 60- and 120-min post-injection (p.i.). The 3D-OSEM algorithm was applied for image reconstruction. For each microPET scan, the regions of interest (ROIs) were drawn over tumor, muscle, liver, and kidneys on the decay-corrected whole-body coronal images. The tumor-to-muscle (T/M), tumor-to-liver (T/L), and tumor-to-kidney (T/K) ratios were then calculated.
Protocol for U-87 MG tumor: as §1, §2, §3, §4

In series [1] (setting [2]), `O=c1[nH]c(=O)n([C@@H]2O[C@H](CO)[C@@H](O)[C@@H]2F)cc1Br` [[^18F]FBAU, 1-(2-deoxy-2-fluoro-β-D-arabinofuranosyl)-5-bromouracil] gave a logP of -0.367 ± 0.025.
As for `CCc1cn([C@@H]2O[C@H](CO)[C@@H](O)[C@@H]2[18F])c(=O)[nH]c1=O` [[^18F]FEAU, 2′-deoxy-2′-[^18F]fluoro-5-ethyl-1-β-D-arabinofuranosyluracil], the “Log P” value in series [1] (setting [2]) is on record as −0.077±0.018. In addition, the “Partition coefficients of 1-octanol/PBS” value in series [1] is listed as 0.837 ± 0.035.
On to `Cc1cn([C@@H]2O[C@H](CO)[C@@H](O)[C@@H]2[18F])c(=O)[nH]c1=O` [[^18F]FMAU, 2′-Deoxy-2′-[^18F]fluoro-5-methyl-1-β-D-arabinofuranosyluracil], for which, in series [1] (setting [2]), the “Log P” value is listed as −0.577±0.003. Further, the “Partition coefficients of 1-octanol/PBS” value in series [1] turned out to be 0.265 ± 0.002. Also, in the series on MDA-MB-231 tumor (1 h p.i.), the “ratio of tumor uptake to kidney uptake (T/K)” value (“ratio of tumor uptake … (T/K)” below) stood at 1.9±0.5, the “ratio of tumor uptake to liver uptake (T/L)” value (shortened to “ratio of tumor uptake … (T/L)”) is on record as 2.1±0.2, the “ratio of tumor uptake to muscle uptake (T/M)” value (“ratio of tumor uptake … (T/M)” below) stood at 2.8±0.3 and the tumor uptake came to 6.4±0.4 % ID/g. Also, in the series with MDA-MB-231 tumor (2 h p.i.), the “ratio of tumor uptake … (T/K)” value worked out at 1.9±0.5, the “ratio of tumor uptake … (T/L)” value came to 2.5±0.2, the “ratio of tumor uptake … (T/M)” value was 3.2±0.7 and the tumor uptake was 7.2±0.6 % ID/g. For the same compound, in the series on U-87 MG tumor (1 h p.i.), the “ratio of tumor uptake … (T/K)” value is reported as 1.4±0.2, the “ratio of tumor uptake … (T/L)” value was found to be 1.4±0.3, the “ratio of tumor uptake … (T/M)” value came out at 1.8±0.2 and the tumor uptake was 6.0±0.2 % ID/g. In addition, in the series on U-87 MG tumor (2 h p.i.), the “ratio of tumor uptake … (T/K)” value is reported as 1.3±0.1, the “ratio of tumor uptake … (T/L)” value stood at 1.5±0.3, the “ratio of tumor uptake … (T/M)” value is given as 1.9±0.3 and the tumor uptake is given as 5.6±0.4 % ID/g.
As for `O=c1[nH]c(=O)n([C@@H]2O[C@H](CO)[C@@H](O)[C@@H]2[18F])cc1Cl` [[^18F]FCAU, 2′-deoxy-2′-[^18F]fluoro-5-chloro-1-β-D-arabinofuranosyluracil], in series [1] (setting [2]), the “Log P” value is −0.477±0.030. In addition, the “Partition coefficients of 1-octanol/PBS” value in series [1] came to 0.334 ± 0.022.
Regarding `O=c1[nH]c(=O)n([C@@H]2O[C@H](CO)[C@@H](O)[C@@H]2[18F])cc1F` [[^18F]FFAU, 2′-deoxy-2′-[^18F]fluoro-5-fluoro-1-β-D-arabinofuranosyluracil], the “Log P” value in series [1] (setting [2]) is reported as −0.952±0.023. The “Partition coefficients of 1-octanol/PBS” value in series [1] came out at 0.113 ± 0.006.
On the same counts, the results for `O=c1[nH]c(=O)n([C@@H]2O[C@H](CO)[C@@H](O)[C@@H]2[18F])cc1I` [[^18F]FIAU, 2′-deoxy-2′-[^18F]fluoro-5-iodo-1-β-D-arabinofuranosyluracil] are −0.108±0.013 and 0.780 ± 0.024.
For `O=c1ccn([C@@H]2O[C@H](CO)[C@@H](O)[C@@H]2[18F])c(=O)[nH]1` [[^18F]FAU, 2′-Deoxy-2′-[^18F]fluoro-1-β-D-arabinofuranosyluracil], the “Log P” value in series [1] (setting [2]) is reported as −0.943±0.041. The “Partition coefficients of 1-octanol/PBS” value in series [1] turned out to be 0.114 ± 0.011.

One may read the logP as a log measure of how a compound divides between an organic and an aqueous phase. By Log P is commonly meant the decadic logarithm of the partition coefficient of the neutral form, usually between octanol and water. High values mean a more lipophilic compound, low ones a more hydrophilic compound.
